In brackets after ≈: the same amount, converted by molar mass. Each block holds one compound with its values, some of them ahead of it.
Experiments:
Assay in all cases: ≥ marks a high value that may be exact or a test limit, other limits are often not marked, values filed in µg/mL are converted to µM
Bacillus subtilis = test system: Bacillus subtilis
Candida albicans = test system: Candida albicans
Escherichia coli = test system: Escherichia coli
Staphylococcus aureus = test system: Staphylococcus aureus
[1] = test system: Escherichia coli DH5alpha
[2] = test system: Pseudomonas aeruginosa ATCC 27853
[3] = test system: Staphylococcus aureus ATCC 25923
[4] = test system: Pseudomonas aeruginosa ATCC 9027
[5] = test system: Staphylococcus aureus ATCC 6538
[6] = test system: Escherichia coli NCTC 10418
[7] = test system: Escherichia coli ATCC 25922
Klebsiella pneumoniae = test system: Klebsiella pneumoniae
[8] = test system: Candida albicans ATCC 10231
[9] = test system: Bacillus subtilis ATCC 6633
[10] = test system: Candida albicans ATCC 90028
[11] = test system: Staphylococcus aureus ATCC 43300

Compound: CC[C@H](C)[C@H](NC(=O)[C@H](CC(C)C)NC(=O)[C@H](CC(C)C)NC(=O)[C@H](CC(=O)O)NC(=O)[C@H](CCCCN)NC(=O)[C@@H](NC(=O)[C@H](C)NC(=O)CNC(=O)[C@H](CC(C)C)NC(=O)[C@@H](NC(=O)CN)C(C)C)C(C)C)C(=O)NCC(=O)N[C@@H](C)C(=O)NCC(=O)N[C@@H](CCCCN)C(=O)N[C@@H](CO)C(=O)N[C@@H](C)C(=O)N[C@@H](C)C(=O)N[C@@H](CCC(N)=O)C(=O)N[C@@H](CO)C(=O)N[C@H](C(=O)N[C@@H](CC(C)C)C(=O)N[C@@H](CCCCN)C(=O)N[C@H](C(=O)N[C@@H](CC(C)C)C(=O)N[C@@H](CO)C(=O)N[C@H]1CSSC[C@@H](C(=O)O)NC(=O)[C@H](CC(=O)O)NC(=O)[C@H](CC(N)=O)NC(=O)[C@H](CO)NC(=O)[C@H](CC(C)C)NC(=O)[C@H](CCCCN)NC1=O)[C@@H](C)O)C(C)C [GVLGAVKDLLIGAGKSAAQSVLKTLSCKLSNDC]
MIC (Bacillus subtilis): 5.04 µM (≈ 16.4 µg/mL) | MIC (Candida albicans): 0.629 µM (≈ 2.05 µg/mL) | MIC (Escherichia coli): 2.52 µM (≈ 8.21 µg/mL) | MIC (Staphylococcus aureus): 1.26 µM (≈ 4.11 µg/mL)

Compound: CC[C@H](C)[C@H](NC(=O)[C@H](CC(C)C)NC(=O)[C@H](C)NC(=O)[C@@H]1CCCN1C(=O)[C@H](CC(C)C)NC(=O)CN)C(=O)N[C@@H](CO)C(=O)N[C@@H](CC(C)C)C(=O)N[C@H](C(=O)N[C@@H](CCCCN)C(=O)N[C@@H](CCCN=C(N)N)C(=O)N[C@@H](CCCCN)C(=O)N[C@@H](CCCN=C(N)N)C(=O)N[C@@H](CCC(N)=O)C(=O)N[C@@H](CCC(N)=O)C(N)=O)[C@@H](C)CC [GLPALISLIKRKRQQ]
MIC (Bacillus subtilis): 5.81 µM (≈ 9.99 µg/mL) | MIC (Escherichia coli): 93.5 µM (≈ 161 µg/mL) | MIC (Staphylococcus aureus): 7.84 µM (≈ 13.5 µg/mL)

Compound: CC[C@H](C)[C@H](NC(=O)CNC(=O)[C@H](CO)NC(=O)[C@H](CC(C)C)NC(=O)[C@H](CC(C)C)NC(=O)CN)C(=O)N[C@@H](CC(C)C)C(=O)NCC(=O)N[C@@H](C)C(=O)NCC(=O)N[C@@H](CCCCN)C(=O)N[C@@H](CCC(N)=O)C(=O)N[C@@H](CCCCN)C(=O)N[C@H](C(=O)N[C@H]1CSSC[C@@H](C(=O)O)NC(=O)[C@H](CC(C)C)NC(=O)CNC(=O)[C@H](CO)NC(=O)[C@H](CC(C)C)NC(=O)CNC1=O)C(C)C [GLLSGILGAGKQKVCGLSGLC]
MIC (Bacillus subtilis): 19 µM (≈ 37.5 µg/mL) | MIC (Candida albicans): 2.37 µM (≈ 4.68 µg/mL) | MIC (Escherichia coli): 4.75 µM (≈ 9.36 µg/mL) | MIC (Staphylococcus aureus): 9.5 µM (≈ 18.7 µg/mL)

Compound: CC[C@H](C)[C@H](NC(=O)[C@H](CO)NC(=O)[C@H](C)NC(=O)[C@@H](NC(=O)[C@H](CCCCN)NC(=O)[C@@H](N)CCCCN)[C@@H](C)CC)C(=O)NCC(=O)N[C@@H](CCCCN)C(=O)N[C@@H](CCC(=O)O)C(=O)N[C@H](C(=O)N[C@@H](CC(C)C)C(=O)N[C@@H](CCCCN)C(=O)N[C@@H](C)C(=O)N[C@@H](CC(C)C)C(N)=O)C(C)C [KKIASIGKEVLKAL]
MIC (Bacillus subtilis): ≥ 75 µM | MIC (Escherichia coli): 100 µM (≈ 150 µg/mL)

Compound: CC(C)C[C@H](NC(=O)[C@H](CCCCN)NC(=O)[C@H](CCCCN)NC(=O)[C@H](C)NC(=O)[C@H](CC(C)C)NC(=O)[C@H](CCCCN)NC(=O)[C@H](C)NC(=O)[C@H](CC(C)C)NC(=O)[C@H](CCCCN)NC(=O)[C@H](CCCCN)NC(=O)[C@H](CC(C)C)NC(=O)[C@H](CCCCN)NC(=O)[C@H](CCCCN)NC(=O)[C@H](C)NC(=O)[C@@H](N)Cc1ccccc1)C(N)=O [FAKKLKKLAKLAKKL]
MIC [4]: 2.89 µM (≈ 5 µg/mL) | MIC [5]: 5.79 µM (≈ 9.99 µg/mL)

Compound: CC[C@H](C)[C@H](NC(=O)CNC(=O)[C@@H]1CCCN1C(=O)[C@@H]1CCCN1C(=O)[C@H](Cc1ccccc1)NC(=O)[C@H](Cc1ccccc1)NC(=O)[C@@H]1CCCN1C(=O)[C@H](Cc1ccccc1)NC(=O)[C@@H](N)CO)C(=O)N[C@H]1CSSC[C@@H](C(=O)O)NC(=O)[C@H](CCCN=C(N)N)NC(=O)[C@H](CCCCN)NC(=O)[C@H](CC(C)C)NC(=O)[C@H](CCCN=C(N)N)NC(=O)[C@H](CCCCN)NC1=O [SFPFFPPGICKRLKRC]
MIC [6]: ≥ 35 µM

Compound: CC(C)C[C@H](NC(=O)[C@H](C)NC(=O)[C@H](CCCCN)NC(=O)[C@H](CCCCN)NC(=O)[C@H](CC(C)C)NC(=O)[C@H](C)NC(=O)[C@H](CCCCN)NC(=O)[C@H](CCCCN)NC(=O)[C@H](CC(C)C)NC(=O)[C@H](CCCCN)NC(=O)[C@H](CCCCN)NC(=O)[C@H](CC(C)C)NC(=O)[C@H](C)NC(=O)[C@H](CCCCN)NC(=O)[C@H](CCCCN)NC(=O)[C@H](Cc1ccccc1)NC(=O)[C@H](CC(C)C)NC(=O)[C@H](CCCCN)NC(=O)[C@H](Cc1c[nH]c2ccccc12)NC(=O)[C@@H](N)CCCCN)C(N)=O [KWKLFKKALKKLKKALKKAL]
MIC [4]: 4.15 µM (≈ 10 µg/mL) | MIC [5]: 4.15 µM (≈ 10 µg/mL)

Compound: CC(C)C[C@H](NC(=O)[C@H](CC(C)C)NC(=O)[C@H](CCCCN)NC(=O)[C@H](C)NC(=O)[C@H](CC(C)C)NC(=O)[C@H](CCCCN)NC(=O)[C@H](CCCCN)NC(=O)[C@H](C)NC(=O)[C@H](CC(C)C)NC(=O)[C@H](CCCCN)NC(=O)[C@H](CCCCN)NC(=O)[C@H](C)NC(=O)[C@@H](N)Cc1ccccc1)C(N)=O [FAKKLAKKLAKLL]
MIC [4]: 3.4 µM (≈ 5 µg/mL) | MIC [5]: 3.4 µM (≈ 5 µg/mL)

Compound: N[C@@H](CC(=O)O)C(=O)N[C@@H](CC(=O)O)C(=O)N[C@@H](CC(=O)O)C(=O)N[C@@H](Cc1ccc(O)cc1)C(=O)O [DDDY]
MIC [8]: 4290 µM (≈ 2260 µg/mL) | MIC [7]: 8580 µM (≈ 4520 µg/mL) | MIC [4]: 68700 µM (≈ 36200 µg/mL)

Compound: CC[C@H](C)[C@@H]1NC(=O)[C@H](C)NC(=O)[C@@H](NC(=O)[C@@H](NC(=O)[C@@H](NC(=O)[C@H](C)NC(=O)[C@@H]2CCCN2C(=O)CNC(=O)[C@@H](NC(=O)[C@H](CCCCN)NC(=O)[C@@H](NC(=O)[C@@H](NC(=O)[C@H](CC(C)C)NC(=O)[C@H](CCCN=C(N)N)NC(=O)[C@H](CC(C)C)NC(=O)[C@@H](NC(=O)CNC(=O)[C@@H]2CCCN2C(=O)[C@H](CC(C)C)NC(=O)[C@@H](N)Cc2ccccc2)C(C)C)C(C)C)[C@@H](C)O)C(C)C)C(C)C)C(C)C)CSSC[C@@H](C(=O)O)NC(=O)[C@H](CC(N)=O)NC(=O)[C@H](CCCN=C(N)N)NC(=O)[C@H]([C@@H](C)O)NC1=O [FLPGVLRLVTKVGPAVVCAITRNC]
MIC [9]: 6.3 µM (≈ 15.9 µg/mL) | MIC [10]: ≥ 50 µM | MIC [11]: 3.1 µM (≈ 7.83 µg/mL) | MIC [5]: 3.1 µM (≈ 7.83 µg/mL)

The remaining lines, values ahead:

MIC (Bacillus subtilis): ≥ 200 µM | MIC [1]: ≥ 200 µM | MIC [2]: > 200 µM | MIC [3]: > 200 µM
Compound: CC[C@H](C)[C@H](NC(=O)[C@H](Cc1ccccc1)NC(=O)[C@@H](NC(=O)[C@H](C)NC(=O)[C@H](CCCN=C(N)N)NC(=O)[C@H](CCCCN)NC(=O)[C@H](CCCN=C(N)N)NC(=O)[C@H](CCCCN)NC(=O)[C@H](C)NC(=O)[C@H](CC(C)C)NC(=O)[C@@H](NC(=O)[C@@H](N)Cc1ccc(O)cc1)C(C)C)[C@@H](C)CC)C(=O)O [YVLAKRKRAIFI]

MIC (Bacillus subtilis): 5 µM (≈ 8.54 µg/mL) | MIC [1]: ≥ 60 µM | MIC [2]: 150 µM (≈ 256 µg/mL) | MIC [3]: 40 µM (≈ 68.3 µg/mL)
Compound: CC[C@H](C)[C@H](NC(=O)[C@H](Cc1ccccc1)NC(=O)[C@@H](NC(=O)[C@H](Cc1c[nH]c2ccccc12)NC(=O)[C@H](CCCN=C(N)N)NC(=O)[C@H](CCCCN)NC(=O)[C@H](CCCN=C(N)N)NC(=O)[C@H](CCCCN)NC(=O)[C@H](Cc1c[nH]c2ccccc12)NC(=O)[C@H](CC(C)C)NC(=O)[C@@H](NC(=O)[C@@H](N)Cc1ccc(O)cc1)C(C)C)[C@@H](C)CC)C(=O)O [YVLWKRKRWIFI]

MIC (Candida albicans): > 190 µM | MIC [7]: 47.5 µM (≈ 128 µg/mL) | MIC (Klebsiella pneumoniae): > 190 µM | MIC [3]: 190 µM (≈ 512 µg/mL)
Compound: CC[C@H](C)[C@H](NC(=O)CNC(=O)[C@H](CC(N)=O)NC(=O)[C@@H](NC(=O)[C@H](C)NC(=O)[C@H](CC(N)=O)NC(=O)[C@H](CC(C)C)NC(=O)[C@H](C)NC(=O)[C@H](C)NC(=O)[C@H](CCCN=C(N)N)NC(=O)CNC(=O)[C@H](C)NC(=O)[C@H](C)NC(=O)[C@H](C)NC(=O)[C@H](C)NC(=O)[C@H](CCSC)NC(=O)[C@H](CC(=O)O)NC(=O)[C@H](CCCCN)NC(=O)[C@@H](NC(=O)[C@H](CO)NC(=O)[C@H](CO)NC(=O)[C@H](Cc1c[nH]c2ccccc12)NC(=O)[C@H](CC(C)C)NC(=O)[C@@H](N)CO)[C@@H](C)CC)C(C)C)C(=O)N[C@H](C(=O)N[C@@H](CC(N)=O)C(=O)N1CCC[C@H]1C(N)=O)C(C)C [SLWSSIKDMAAAAGRAALNAVNGIVNP]

MIC (Bacillus subtilis): 9.77 µM (≈ 17.5 µg/mL) | MIC (Candida albicans): 4.89 µM (≈ 8.74 µg/mL) | MIC (Escherichia coli): 9.77 µM (≈ 17.5 µg/mL) | MIC (Staphylococcus aureus): 19.5 µM (≈ 35 µg/mL)
Compound: CC[C@H](C)[C@@H]1NC(=O)[C@H](Cc2ccc(O)cc2)NC(=O)[C@@H](NC(=O)[C@H](CCCN=C(N)N)NC(=O)[C@H](CO)NC(=O)[C@@H](N)[C@@H](C)O)CSSC[C@@H](C(=O)N[C@@H](CO)C(=O)O)NC(=O)[C@H](C(C)C)NC(=O)[C@H](C(C)C)NC(=O)[C@H](CCCCN)NC(=O)[C@H](CCCN=C(N)N)NC(=O)[C@H](CCCN=C(N)N)NC(=O)[C@H](Cc2ccc(O)cc2)NC(=O)CNC1=O [TSRCYIGYRRKVVCS]
